# Test results published in US5536822A, “γ-phosphate linked adenosine 5' triphosphate sepharose” (University of Virginia Alumni Patents Foundation, priority 1994, dated 1996).
# How the values were obtained:
# p42^mapk = biological target: T1, p42^mapk (Mus musculus, UniProt P63085); experiment: Inhibition constant of the ATP derivative / Km for ATP, p42^mapk assay; type: biochemical; conditions: 20 μM ATP
# T1 construct: made in house
# Text: (§1) [γ-^32 P] ATP was synthesized according to the procedure set forth in Johnson et al., Advances in Cyclic Nucleotide Research, 10:135-167 (1979). The catalytic subunit of cyclic-AMP-dependent protein kinase was purchased from Promega. p60^c-arc was obtained from the Department of Microbiology, University of Virginia. Recombinant p42^mapk was purified as described in Haystead et al., (1992) FEBS Lett., 306:17-22. STE7 antibody was obtained from the University of Vancouver, Canada.
# (§2) The 42-kDa MAP kinase (p42^mapk) and MAPKK were assayed as described previously (Haystead et al. (1992) FEBS. Lett., 306:17-22). The cyclic-A kinase assays (30 μl) included 1 μg cyclic-A kinase, 2 mM Kemptide, 50 mM Hepes, pH 7.4, 1 mM dithiothreitol, 200 μM ATP, 5 mM MgCl2. […]
# (§3) In order to assess the effectiveness of adenosine 5'-(γ-4-aminophenyl)triphosphate as an affinity ligand for protein kinases, the inhibition constants (Ki) of the derivative were determined for four different protein kinases, namely, p42^mapk, cyclic-A kinase, MAPKK and p60^c-arc (Table 1). […] This also facilitated comparisons for the relative binding constants determined with other ATP analogs (Flockhart et al. (1984) Eur. J. Biochem., 140:289-295; Hoppe et al. (1972) Eur. J. Biochem., 80:369-372; Taylor et al. (1990) Peptides and Protein Phosphorylation (Kemp et al.) pp 2-32, CRC Press).
# MAPKK = biological target: T2, MAPKK (Oryctolagus cuniculus, UniProt P29678); experiment: Inhibition constant of the ATP derivative / Km for ATP, MAPKK assay; type: biochemical, rabbit
# T2 construct: MAPKK, from rabbit skeletal muscle, was partially purified 600-fold; from tissue; host or cells: skeletal muscle (back and hind-limb) of a female New Zealand white rabbit
# Procedure: A fed female New Zealand white rabbit was euthanized by lethal injection with phenobarbital via the marginal ear vein. The back and hind-limb skeletal muscle (300 g) were rapidly excised, minced and homogenized at 4° C. with 2.5 vol. solution C (50 mM 2-glycerophosphate, pH 7.3, 1.5 mM EGTA, 0.15 μM sodium orthovanidate, 1 mM dithiothreitol, 1 mM phenylmethanesulfonyl fluoride, 1 mM benzamidine) containing 6 μg/ml leupeptin. All subsequent steps were carried out at 4° C. […] The DEAE was packed into a glass column (20 cm×50 cm) washed with solution C until the absorbance at […] of the eluate was <0.005 absorbance. […]
# as §3
# p60^c-src = biological target: T3, p60^c-src (Homo sapiens, UniProt P12931); experiment: Inhibition constant of the ATP derivative / Km for ATP, p60^c-src assay (peptide substrate); type: biochemical; conditions: 20 μM ATP
# T3 construct: Department of Microbiology, University of Virginia (obtained from; not a purchase)
# Text: as §1, §2, §3
# [1] = tested on: four different protein kinases, namely, p42^mapk, cyclic-A kinase, MAPKK and p60^c-arc; experiment: Inhibition of four protein kinases by the ATP derivative (summary over all enzymes); type: biochemical
# Procedure: The 42-kDa MAP kinase (p42^mapk) and MAPKK were assayed as described previously (Haystead et al. (1992) FEBS. Lett., 306:17-22). The cyclic-A kinase assays (30 μl) included 1 μg cyclic-A kinase, 2 mM Kemptide, 50 mM Hepes, pH 7.4, 1 mM dithiothreitol, 200 μM ATP, 5 mM MgCl2. Reactions were terminated by spotting 25 μl assay mixture onto P81 paper as described in Haystead et al. (1992) FEBS Lett., 306:17-22. p60^c-arc assays were similar, except a 2 mM peptide (Rossomando et al., 1992) Proc. Natl. Acad. Sci., 89:5221-5225) was used as the substrate.
# In order to assess the effectiveness of adenosine 5'-(γ-4-aminophenyl)triphosphate as an affinity ligand for protein kinases, the inhibition constants (Ki) of the derivative were determined for four different protein kinases, namely, p42^mapk, cyclic-A kinase, MAPKK and p60^c-arc (Table 1). The Ki was determined in the presence of 20 μM ATP. However, since the Km for ATP varied for each protein kinase tested, for comparative purposes it was convenient to determine the Ki /Km quotient (Table 1). This also facilitated comparisons for the relative binding constants determined with other ATP analogs (Flockhart et al. (1984) Eur. J. Biochem., 140:289-295; Hoppe et al. (1972) Eur. J. Biochem., 80:369-372; Taylor et al. (1990) Peptides and Protein Phosphorylation (Kemp et al.) pp 2-32, CRC Press).
# Cyclic A kinase = Cyclic A kinase (Bos taurus, UniProt P00517); experiment: Inhibition constant of the ATP derivative / Km for ATP, cyclic-A kinase assay (Kemptide substrate)
# [2] = [Mg^2+] reduced to levels equimolar with free ATP
# T1 sequence (P63085 whole entry): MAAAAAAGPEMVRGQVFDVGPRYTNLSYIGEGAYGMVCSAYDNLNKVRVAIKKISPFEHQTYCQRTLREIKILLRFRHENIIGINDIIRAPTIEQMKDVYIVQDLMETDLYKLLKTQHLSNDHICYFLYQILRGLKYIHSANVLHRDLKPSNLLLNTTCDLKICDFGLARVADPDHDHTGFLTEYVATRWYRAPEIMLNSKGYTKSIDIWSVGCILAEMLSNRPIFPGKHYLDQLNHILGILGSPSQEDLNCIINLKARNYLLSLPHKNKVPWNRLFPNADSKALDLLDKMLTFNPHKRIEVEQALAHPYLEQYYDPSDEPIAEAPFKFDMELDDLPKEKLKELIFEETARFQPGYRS
# T2 sequence (P29678 whole entry): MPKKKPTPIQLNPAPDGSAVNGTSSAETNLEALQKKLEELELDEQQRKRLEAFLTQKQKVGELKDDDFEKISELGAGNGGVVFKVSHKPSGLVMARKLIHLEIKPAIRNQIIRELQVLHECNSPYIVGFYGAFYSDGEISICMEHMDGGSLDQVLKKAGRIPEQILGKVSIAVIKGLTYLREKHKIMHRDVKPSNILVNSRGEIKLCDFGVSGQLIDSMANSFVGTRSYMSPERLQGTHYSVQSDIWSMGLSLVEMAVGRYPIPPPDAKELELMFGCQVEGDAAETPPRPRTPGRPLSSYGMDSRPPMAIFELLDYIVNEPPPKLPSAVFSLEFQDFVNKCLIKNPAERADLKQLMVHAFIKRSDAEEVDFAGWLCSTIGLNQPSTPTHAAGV
# T3 sequence (P12931 whole entry): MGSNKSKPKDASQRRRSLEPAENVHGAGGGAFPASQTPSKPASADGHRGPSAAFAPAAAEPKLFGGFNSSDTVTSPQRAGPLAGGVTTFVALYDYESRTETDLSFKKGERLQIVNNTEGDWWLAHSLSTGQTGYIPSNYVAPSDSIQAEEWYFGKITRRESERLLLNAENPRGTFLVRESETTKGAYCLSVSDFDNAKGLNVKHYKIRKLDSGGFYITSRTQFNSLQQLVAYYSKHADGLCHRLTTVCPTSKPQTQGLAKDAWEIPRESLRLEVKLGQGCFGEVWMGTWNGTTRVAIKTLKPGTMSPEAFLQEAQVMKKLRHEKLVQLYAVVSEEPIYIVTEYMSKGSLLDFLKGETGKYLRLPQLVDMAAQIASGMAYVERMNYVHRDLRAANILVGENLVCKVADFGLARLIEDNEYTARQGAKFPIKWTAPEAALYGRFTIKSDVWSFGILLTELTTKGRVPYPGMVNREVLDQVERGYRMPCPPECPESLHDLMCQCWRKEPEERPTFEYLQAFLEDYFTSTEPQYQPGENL
smiles,measurement,setting,value
Nc1ccc(OP(=O)(O)OP(=O)(O)OP(=O)(O)OC[C@H]2O[C@@H](n3cnc4c(N)ncnc43)[C@H](O)[C@@H]2O)cc1 [adenosine-5'-(γ-4-aminophenyl)triphosphate],Ki /Km,p42^mapk; Km for ATP,10.02
same,Ki,p42^mapk; read-out: Ki ± SDM,75.2 ± 8.2 µM
same,Ki,MAPKK,176 ± 22.1 µM
same,Ki /Km,"MAPKK; MAPKK, 20 μM ATP, Km for ATP",15.20
same,Ki /Km,p60^c-src; Km for ATP,19.35
same,Ki,p60^c-src; read-out: Ki ± SDM,120 ± 13.6 µM
same,competition with ATP,[1]; 20 μM ATP,competes with ATP
same,Ki /Km quotient,"[1]; 20 μM ATP, range over four enzymes",10-20
same,Ki,"[1]; 20 μM ATP, range over four enzymes, read-out: apparent Ki values obtained against each enzyme",75 to 180 µM
same,effect on the Ki /Km quotient of reduced [Mg^2+],[1]; [2],no effect
same,effect on the Ki of reduced [Mg^2+],[1]; [2],no effect
same,Ki,Cyclic A kinase,104 ± 11.6 µM
same,Ki /Km,"Cyclic A kinase; cyclic A kinase, 20 μM ATP, Km for ATP",14.60
